Key:
[1] = target: Mitogen-activated protein kinase kinase kinase 20 (Homo sapiens) (UniProt Q9NYL2); test: Selectivity interaction (KinomeScan (DiscoverX)) EUB0000595a MAP3K20; conditions: at 10 µM
[2] = target: Epidermal growth factor receptor (Homo sapiens, UniProt P00533); test: Selectivity interaction (Upstate Kinase Profiler service (Millipore)) EUB0000056c EGFR; conditions: at 1 µM
[3] = target: T1, Non-receptor tyrosine-protein kinase TNK1 (Homo sapiens) (UniProt Q13470); test: Selectivity interaction (KinomeScan (DiscoverX)) EUB0000618a TNK1; conditions: at 10 µM
T1 sequence (whole entry): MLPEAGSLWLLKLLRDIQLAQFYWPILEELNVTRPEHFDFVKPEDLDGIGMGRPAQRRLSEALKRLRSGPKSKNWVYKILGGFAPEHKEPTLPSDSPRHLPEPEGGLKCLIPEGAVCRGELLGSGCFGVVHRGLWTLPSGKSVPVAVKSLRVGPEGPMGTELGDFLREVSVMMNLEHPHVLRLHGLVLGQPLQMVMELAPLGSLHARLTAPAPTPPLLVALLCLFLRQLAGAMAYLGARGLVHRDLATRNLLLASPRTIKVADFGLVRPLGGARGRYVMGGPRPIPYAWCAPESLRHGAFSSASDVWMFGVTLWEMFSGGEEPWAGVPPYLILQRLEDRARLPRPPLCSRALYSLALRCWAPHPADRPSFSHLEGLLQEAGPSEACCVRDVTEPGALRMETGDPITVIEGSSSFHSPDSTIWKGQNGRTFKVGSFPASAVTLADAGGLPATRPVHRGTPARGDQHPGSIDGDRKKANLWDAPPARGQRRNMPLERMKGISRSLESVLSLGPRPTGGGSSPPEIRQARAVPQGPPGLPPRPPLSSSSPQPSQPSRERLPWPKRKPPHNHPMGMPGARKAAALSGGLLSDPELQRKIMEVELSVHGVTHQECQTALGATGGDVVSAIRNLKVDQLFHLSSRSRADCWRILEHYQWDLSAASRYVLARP

[4] = target: Ribosomal protein S6 kinase alpha-3 (Homo sapiens, UniProt P51812); test: Selectivity interaction (ActivX KiNativ screen (kinase selectivity in THP-1 cell lysates)) EUB0000639a RPS6KA3; assay type: subcellular; conditions: lysate, at 0.2 µM
[5] = target: Angiopoietin-1 receptor (Homo sapiens) (UniProt Q02763); test: Selectivity interaction (KinomeScan (DiscoverX)) EUB0000655a TEK; conditions: at 10 µM
[6] = target: Mitogen-activated protein kinase 10 (Homo sapiens, UniProt P53779); conditions: at 10 µM
[7] = target: T2, Serine/threonine-protein kinase NLK (Homo sapiens) (UniProt Q9UBE8); conditions: at 10 µM
T2 sequence (whole entry): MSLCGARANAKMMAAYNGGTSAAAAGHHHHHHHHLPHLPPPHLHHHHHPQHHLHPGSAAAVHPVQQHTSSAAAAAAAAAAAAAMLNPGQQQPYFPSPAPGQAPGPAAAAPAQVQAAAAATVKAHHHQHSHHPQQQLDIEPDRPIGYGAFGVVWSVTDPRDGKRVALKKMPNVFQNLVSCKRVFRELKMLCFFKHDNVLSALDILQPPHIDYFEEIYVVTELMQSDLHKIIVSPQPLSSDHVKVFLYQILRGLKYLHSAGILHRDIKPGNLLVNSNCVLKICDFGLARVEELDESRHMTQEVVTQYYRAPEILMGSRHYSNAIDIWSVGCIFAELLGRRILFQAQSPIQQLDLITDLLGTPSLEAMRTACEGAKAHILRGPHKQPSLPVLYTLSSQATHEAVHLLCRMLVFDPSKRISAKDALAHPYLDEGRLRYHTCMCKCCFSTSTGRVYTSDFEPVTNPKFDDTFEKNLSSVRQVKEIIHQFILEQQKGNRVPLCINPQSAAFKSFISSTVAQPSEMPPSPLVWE

[8] = target: Tyrosine-protein kinase Blk (Homo sapiens) (UniProt P51451); test: Selectivity interaction (Ambit KINOMEscan and KiNATiv profiling in Jurkat cells) EUB0000090b BLK; assay type: cell-based; conditions: at 1 µM
[9] = target: T3, Tyrosine-protein kinase JAK3 (Homo sapiens) (UniProt P52333); test: Selectivity interaction (Ambit KINOMEscan and KiNATiv profiling in Jurkat cells) EUB0000090b JAK3; assay type: cell-based; conditions: at 1 µM
T3 sequence (whole entry): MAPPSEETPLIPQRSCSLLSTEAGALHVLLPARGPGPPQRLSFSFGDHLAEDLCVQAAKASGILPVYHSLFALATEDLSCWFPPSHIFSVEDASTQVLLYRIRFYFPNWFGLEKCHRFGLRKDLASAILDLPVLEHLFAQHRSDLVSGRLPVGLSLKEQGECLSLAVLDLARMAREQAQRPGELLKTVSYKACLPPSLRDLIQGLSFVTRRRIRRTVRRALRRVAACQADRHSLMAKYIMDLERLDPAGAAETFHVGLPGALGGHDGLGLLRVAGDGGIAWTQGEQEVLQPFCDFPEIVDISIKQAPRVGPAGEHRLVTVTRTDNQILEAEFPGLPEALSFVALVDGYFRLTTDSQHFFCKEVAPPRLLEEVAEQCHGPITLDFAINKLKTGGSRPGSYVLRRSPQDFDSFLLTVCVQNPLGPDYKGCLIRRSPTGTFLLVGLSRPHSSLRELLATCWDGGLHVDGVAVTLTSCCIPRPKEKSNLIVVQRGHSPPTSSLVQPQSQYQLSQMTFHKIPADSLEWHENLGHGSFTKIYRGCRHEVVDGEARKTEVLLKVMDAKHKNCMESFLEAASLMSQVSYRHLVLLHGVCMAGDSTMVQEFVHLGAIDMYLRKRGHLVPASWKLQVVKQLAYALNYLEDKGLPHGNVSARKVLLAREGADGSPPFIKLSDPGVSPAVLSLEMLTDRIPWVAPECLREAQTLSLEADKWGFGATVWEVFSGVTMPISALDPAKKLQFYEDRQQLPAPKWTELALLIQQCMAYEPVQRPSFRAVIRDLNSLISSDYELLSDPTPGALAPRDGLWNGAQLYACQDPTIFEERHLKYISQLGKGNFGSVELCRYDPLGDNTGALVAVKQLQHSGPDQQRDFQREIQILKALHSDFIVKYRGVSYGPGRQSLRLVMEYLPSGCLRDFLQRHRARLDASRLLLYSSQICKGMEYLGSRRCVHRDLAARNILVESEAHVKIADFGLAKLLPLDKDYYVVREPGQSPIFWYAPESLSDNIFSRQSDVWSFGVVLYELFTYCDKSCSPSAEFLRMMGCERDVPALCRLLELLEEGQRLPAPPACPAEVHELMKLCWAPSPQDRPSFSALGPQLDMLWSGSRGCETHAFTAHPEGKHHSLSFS

Sequence of Tyrosine-protein kinase Blk (Homo sapiens) (P51451 2-505 limits assumed): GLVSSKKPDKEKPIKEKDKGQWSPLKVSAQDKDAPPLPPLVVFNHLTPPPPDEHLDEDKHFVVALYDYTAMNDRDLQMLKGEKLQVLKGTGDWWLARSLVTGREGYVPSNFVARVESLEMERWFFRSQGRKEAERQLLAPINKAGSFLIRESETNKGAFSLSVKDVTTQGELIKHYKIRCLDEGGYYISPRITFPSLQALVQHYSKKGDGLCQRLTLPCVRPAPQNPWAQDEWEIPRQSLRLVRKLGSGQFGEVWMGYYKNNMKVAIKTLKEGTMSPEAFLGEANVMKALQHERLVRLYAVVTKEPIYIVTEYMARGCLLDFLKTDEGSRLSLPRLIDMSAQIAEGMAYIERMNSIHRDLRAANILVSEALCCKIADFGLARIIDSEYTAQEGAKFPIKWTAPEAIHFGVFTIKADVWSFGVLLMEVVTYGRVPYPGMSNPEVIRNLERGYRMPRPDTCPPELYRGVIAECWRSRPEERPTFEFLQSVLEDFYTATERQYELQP
Sequence of Epidermal growth factor receptor (P00533 whole entry): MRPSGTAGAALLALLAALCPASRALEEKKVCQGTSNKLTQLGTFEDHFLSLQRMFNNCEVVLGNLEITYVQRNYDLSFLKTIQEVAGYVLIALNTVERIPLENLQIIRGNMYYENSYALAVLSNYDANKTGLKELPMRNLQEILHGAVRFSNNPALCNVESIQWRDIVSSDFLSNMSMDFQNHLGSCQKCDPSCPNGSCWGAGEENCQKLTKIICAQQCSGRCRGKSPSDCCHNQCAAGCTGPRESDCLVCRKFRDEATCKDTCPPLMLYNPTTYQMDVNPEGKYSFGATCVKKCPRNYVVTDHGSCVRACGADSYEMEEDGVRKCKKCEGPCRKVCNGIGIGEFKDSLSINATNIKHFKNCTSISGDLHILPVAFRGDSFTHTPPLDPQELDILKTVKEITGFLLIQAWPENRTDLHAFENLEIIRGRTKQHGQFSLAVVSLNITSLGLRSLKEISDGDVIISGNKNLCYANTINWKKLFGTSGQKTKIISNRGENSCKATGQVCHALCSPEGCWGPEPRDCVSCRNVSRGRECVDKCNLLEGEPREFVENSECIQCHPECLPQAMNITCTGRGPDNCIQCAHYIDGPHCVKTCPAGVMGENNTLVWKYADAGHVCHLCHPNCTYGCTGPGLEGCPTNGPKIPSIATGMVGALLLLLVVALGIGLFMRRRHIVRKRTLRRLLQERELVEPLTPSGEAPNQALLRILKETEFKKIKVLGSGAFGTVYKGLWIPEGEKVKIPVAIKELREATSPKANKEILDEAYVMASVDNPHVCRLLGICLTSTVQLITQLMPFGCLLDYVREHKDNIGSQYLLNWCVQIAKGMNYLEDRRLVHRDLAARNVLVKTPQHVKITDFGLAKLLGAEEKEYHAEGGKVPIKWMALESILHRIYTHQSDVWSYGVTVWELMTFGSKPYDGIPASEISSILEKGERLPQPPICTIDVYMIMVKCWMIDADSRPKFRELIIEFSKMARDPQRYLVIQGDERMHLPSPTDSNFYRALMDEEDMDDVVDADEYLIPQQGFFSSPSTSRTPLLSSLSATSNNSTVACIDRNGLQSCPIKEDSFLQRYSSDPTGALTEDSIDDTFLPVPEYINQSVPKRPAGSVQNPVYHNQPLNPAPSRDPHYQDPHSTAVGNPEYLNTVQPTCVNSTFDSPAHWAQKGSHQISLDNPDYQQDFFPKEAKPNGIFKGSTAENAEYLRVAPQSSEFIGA
Sequence of Mitogen-activated protein kinase 10 (P53779 whole entry): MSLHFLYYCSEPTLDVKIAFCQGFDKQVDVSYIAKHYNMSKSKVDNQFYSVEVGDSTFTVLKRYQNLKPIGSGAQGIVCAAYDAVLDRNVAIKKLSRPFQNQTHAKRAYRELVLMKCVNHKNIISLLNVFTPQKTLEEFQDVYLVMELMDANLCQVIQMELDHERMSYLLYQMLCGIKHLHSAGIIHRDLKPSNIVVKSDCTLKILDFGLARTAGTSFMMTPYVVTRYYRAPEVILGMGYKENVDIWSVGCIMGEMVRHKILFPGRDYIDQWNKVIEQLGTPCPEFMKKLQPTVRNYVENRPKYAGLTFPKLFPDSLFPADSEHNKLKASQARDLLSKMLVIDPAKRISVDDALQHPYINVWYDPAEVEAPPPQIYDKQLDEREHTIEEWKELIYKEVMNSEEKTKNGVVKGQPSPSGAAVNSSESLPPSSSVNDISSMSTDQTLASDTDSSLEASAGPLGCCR
Sequence of Ribosomal protein S6 kinase alpha-3 (P51812 whole entry): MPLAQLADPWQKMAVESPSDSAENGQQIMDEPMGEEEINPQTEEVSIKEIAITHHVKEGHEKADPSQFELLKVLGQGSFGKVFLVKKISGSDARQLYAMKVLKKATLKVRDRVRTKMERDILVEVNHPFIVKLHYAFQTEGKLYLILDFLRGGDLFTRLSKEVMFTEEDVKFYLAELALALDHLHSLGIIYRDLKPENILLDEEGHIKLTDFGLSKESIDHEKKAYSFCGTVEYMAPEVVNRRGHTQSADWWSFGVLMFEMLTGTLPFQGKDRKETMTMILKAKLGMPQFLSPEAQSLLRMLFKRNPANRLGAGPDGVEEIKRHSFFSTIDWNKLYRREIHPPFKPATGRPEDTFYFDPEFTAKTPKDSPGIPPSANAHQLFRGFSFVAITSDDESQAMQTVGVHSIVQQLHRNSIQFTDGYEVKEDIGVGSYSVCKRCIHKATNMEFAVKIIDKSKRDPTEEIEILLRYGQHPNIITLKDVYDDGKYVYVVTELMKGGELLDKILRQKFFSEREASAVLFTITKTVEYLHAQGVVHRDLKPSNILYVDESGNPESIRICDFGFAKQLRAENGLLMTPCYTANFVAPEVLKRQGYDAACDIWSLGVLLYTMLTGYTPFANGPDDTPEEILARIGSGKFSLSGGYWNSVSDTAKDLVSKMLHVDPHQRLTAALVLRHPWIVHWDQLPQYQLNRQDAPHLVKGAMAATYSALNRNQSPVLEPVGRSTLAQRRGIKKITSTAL
Sequence of Mitogen-activated protein kinase kinase kinase 20 (Homo sapiens) (Q9NYL2 2-800 limits assumed): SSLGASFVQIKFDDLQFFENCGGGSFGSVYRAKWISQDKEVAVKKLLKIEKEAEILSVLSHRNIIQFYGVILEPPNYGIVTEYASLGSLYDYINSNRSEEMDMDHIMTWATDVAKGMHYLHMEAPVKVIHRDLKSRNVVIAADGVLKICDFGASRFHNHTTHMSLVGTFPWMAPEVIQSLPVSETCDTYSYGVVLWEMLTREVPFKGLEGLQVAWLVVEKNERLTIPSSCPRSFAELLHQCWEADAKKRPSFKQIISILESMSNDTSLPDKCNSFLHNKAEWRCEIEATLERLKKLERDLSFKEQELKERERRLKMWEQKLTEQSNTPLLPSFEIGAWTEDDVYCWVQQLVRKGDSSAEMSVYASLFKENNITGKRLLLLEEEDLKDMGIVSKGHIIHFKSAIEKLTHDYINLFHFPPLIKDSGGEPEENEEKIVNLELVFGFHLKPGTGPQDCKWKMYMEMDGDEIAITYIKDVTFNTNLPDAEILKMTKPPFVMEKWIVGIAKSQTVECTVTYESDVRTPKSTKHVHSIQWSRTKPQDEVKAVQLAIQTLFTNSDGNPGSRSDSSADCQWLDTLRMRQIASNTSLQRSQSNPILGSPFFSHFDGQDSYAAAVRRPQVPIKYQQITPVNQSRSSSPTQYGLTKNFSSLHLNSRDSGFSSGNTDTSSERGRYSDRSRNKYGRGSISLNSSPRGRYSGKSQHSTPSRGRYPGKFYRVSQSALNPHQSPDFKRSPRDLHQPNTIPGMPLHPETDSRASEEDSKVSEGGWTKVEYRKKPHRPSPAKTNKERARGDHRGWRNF
Sequence of Angiopoietin-1 receptor (Homo sapiens) (Q02763 whole entry): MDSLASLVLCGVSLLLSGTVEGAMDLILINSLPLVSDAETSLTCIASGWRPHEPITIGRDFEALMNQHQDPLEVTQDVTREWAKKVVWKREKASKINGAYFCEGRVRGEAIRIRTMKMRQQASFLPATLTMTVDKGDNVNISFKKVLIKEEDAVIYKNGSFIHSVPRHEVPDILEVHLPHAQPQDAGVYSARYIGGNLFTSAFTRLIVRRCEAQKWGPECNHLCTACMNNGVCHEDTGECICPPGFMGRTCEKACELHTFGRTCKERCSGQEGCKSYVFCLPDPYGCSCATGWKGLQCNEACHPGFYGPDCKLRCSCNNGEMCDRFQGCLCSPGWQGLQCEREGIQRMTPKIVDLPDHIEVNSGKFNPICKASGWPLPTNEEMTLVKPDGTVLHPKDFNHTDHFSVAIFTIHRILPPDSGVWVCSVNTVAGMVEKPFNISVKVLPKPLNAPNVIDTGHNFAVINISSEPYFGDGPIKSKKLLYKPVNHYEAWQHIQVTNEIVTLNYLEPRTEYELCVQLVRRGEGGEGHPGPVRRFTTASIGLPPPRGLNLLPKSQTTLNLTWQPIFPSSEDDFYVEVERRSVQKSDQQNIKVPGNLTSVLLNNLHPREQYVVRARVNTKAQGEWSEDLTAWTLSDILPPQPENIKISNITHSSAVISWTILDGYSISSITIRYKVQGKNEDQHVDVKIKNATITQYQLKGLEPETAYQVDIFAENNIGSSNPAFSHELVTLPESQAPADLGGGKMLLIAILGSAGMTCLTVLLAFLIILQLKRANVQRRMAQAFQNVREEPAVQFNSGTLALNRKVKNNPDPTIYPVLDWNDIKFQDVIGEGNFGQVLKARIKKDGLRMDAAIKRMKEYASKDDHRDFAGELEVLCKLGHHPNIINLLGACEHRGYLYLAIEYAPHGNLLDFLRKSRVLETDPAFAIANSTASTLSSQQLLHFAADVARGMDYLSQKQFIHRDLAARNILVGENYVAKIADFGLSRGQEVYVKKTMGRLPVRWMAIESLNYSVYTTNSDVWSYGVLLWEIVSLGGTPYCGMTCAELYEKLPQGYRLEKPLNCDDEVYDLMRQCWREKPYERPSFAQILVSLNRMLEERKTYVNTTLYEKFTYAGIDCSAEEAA

COCC(=O)NC/C=C/c1ccc2ncnc(Nc3ccc(Oc4ccc(C)nc4)c(C)c3)c2c1 [CP-724714]
% of control [1]: 76%

Cc1ccc(-c2ccc3c(ccc4sc5c(c43)NC[C@@H](C)NC5=O)n2)cn1
% of inhibition [2]: -2%

O[C@H]1CC[C@H](Nc2ncc3nc(Nc4c(F)cc(F)cc4F)n([C@H]4CCOC4)c3n2)CC1
% of control [3]: 97%

CC[C@@H]1[C@H](F)C(=O)N[C@@H]1COc1nccc2cc(C(N)=O)c(OC)cc12 [ZIMLOVISERTIB]
% of inhibition [4]: 0%

CN(C)CCOc1ccc(-c2nc(-c3ccncc3)c(-c3ccc4c(c3)CC/C4=N\O)[nH]2)cc1
% of control [5]: 63%

CCN(CC)CCCCNc1ncc2cc(-c3cc(OC)cc(OC)c3)c(NC(=O)NC(C)(C)C)nc2n1
% of control [6]: 100% | % of control [7]: 100%

CN(C)C/C=C/C(=O)Nc1ccc(C(=O)N2CCCC(Nc3ncc(Cl)c(-c4c[nH]c5ccccc45)n3)C2)cc1 (centres undefined)
% of control [8]: 84% | % of control [9]: 100%

Source: ChEMBL document CHEMBL5465560, “Selectivity Literature for EUbOPEN Chemogenomic Library” (2024)
